Laboratory results published in patent US20230190760A1, “ADVANTAGEOUS THERAPIES FOR DISORDERS MEDIATED BY IKAROS OR AIOLOS” (C4 Therapeutics, Inc., priority 2020, published 2023).

Assays:
[1] = test system: germinal center B-cell like DLBCL lines; test: Anti-cancer activity in GCB-DLBCL cell lines; format: cell-based; conditions: six of eleven responsive, read-out: mean IC50 amongst the responsive lines
cereblon-DDB1 = cereblon-DDB1 (Homo sapiens, UniProt Q96SW2); test: Fluorescent polarization: probe displacement from purified cereblon-DDB1; format: binding; conditions: competition with Alexa-647 based fluorescence probe
Method: Columns 23 and 24 are reserved for 0% (5 nM probe) and 100% controls (protein at high concentration with 5 nM probe), respectively. […] Plates were read on an Envision plate reader with appropriate FP filter sets.

[2] = test system: 8 multiple myeloma cell lines; test: Growth of 8 multiple myeloma cell lines (CellTiter-Glo, 96 hour); format: cell-based
Jeko-1 = test: Anti-proliferative activity, 96 hours; conditions: Homo sapiens, JeKo-1, 96 h
[3] = test system: IMiD-resistant NCIH929 cells; test: Growth of IMiD-resistant NCIH929 cells (CellTiter-Glo)
Method: Briefly, test compound was added to 384-well plates at a top concentration of 10 μM with 14 points, half log titration in duplicates. NCIH929 cells were seeded into the 384-well plates in RPMI medium containing 10% FBS and 0.05 mM 2-mercaptoethanol at a cell density of 750 cells per well. Cells treated in the absence of the test compound were the negative control and cells treated in the absence of CellTiter-Glo® 2.0 were the positive control. Cells treated with the test compounds were incubated at 37° C. with 5% CO2 for 96 hr. CellTiter-Glo reagent was then added to the cells and luminescence was acquired on EnVision™ Multilabel Reader (PerkinElmer, Santa Clara, Calif., USA). % Viability was determined by normalizing the signal with positive and DMSO treated negative controls on the same microtiter plate.

IKZF1/3 [4] = test: Biomarker assessment in MM and ALCL tumor bearing studies; format: in vivo
IKZF1/3 [5] = test: Ex vivo IKZF1/3 degradation in PBMC, dog; format: cell-based; conditions: dog cells
Method: IKZF1/3 are not degraded in mouse cells treated with thalidomide or its IMiD® analogs because of a single amino acid difference in mouse cereblon compared to human cereblon that causes steric hindrance and prevents recruitment of IKZF1/3. Ex vivo studies were performed in peripheral blood cells (PBMC) of mice, rats, dogs, and monkeys to identify relevant species for IND enabling-toxicity studies based on the degree of IKZF1 degradation by Compound 1. IKZF1 was not degraded in mouse or rat cells by Compound 1, thus, while rat could not be considered a pharmacologically relevant species for human risk assessment, it was chosen as the rodent species for toxicological studies because it is widely used in toxicity testing and a substantial historical toxicology database is available. […] Therefore, cynomolgus monkey was chosen for non-rodent toxicological studies.

HuT 102 = test: Anti-proliferative activity, 96 hours; conditions: HuT-102, 96 h
[6] = test system: multiple myeloma cell lines; test: Anti-cancer activity in a panel of multiple myeloma cell lines; format: cell-based; conditions: eight of twelve were responsive, read-out: mean IC50 among responsive lines
[7] = Plasma PK and interconversion in rat; format: in vivo; conditions: Compound 1 30 mg/kg PO
Method: Compound 1 was administered to a rat at a concentration of 30 mg/kg PO and monkeys at a concentration of either 60 μg/kg or 100 μg/kg PO. At the indicated timepoints shown in FIG. 25A and FIG. 25B, plasma samples were collected and the Cmax, half-life, and AUC0-inf were determined for both Compound 1 and a metabolite of Compound 1, Compound 14. The percent of Compound 14 was also determined (Table 13). PK values dose normalized to 1 mg/kg. FIG. 25A is a graph measuring the concentration of Compound 1 or Compound 14 over the course of 24 hours in monkeys administered 100 μg/kg or 60 μg/kg of Compound 1. FIG. 25B is a graph measuring the concentration of Compound 1 or Compound 14 over the course of 24 hours in a rat administered 30 mg/kg of Compound 1.

[8] = test system: MM1.S multiple myeloma tumors; test: Disseminated MM1.S-Luc multiple myeloma model, bioluminescence; format: in vivo, mice; conditions: 300 μg/kg QD orally
Method: Compound 1 was administered at 300 μg/kg QD (every day) orally to female NOD SCID mice with disseminated MM1.S multiple myeloma tumors with a measurable MM1.S tumor burden on day 0 and dosed PO daily for 3 weeks. […] Data are expressed as mean BLI±SEM.
A xenograft study was conducted. Female SCID animals were irradiated with a 200 rads Co60 irradiator source and after 24 hours, animals were inoculated via tail vein injection with 1×107 MM1.S-Luc in 200 μL PBS. Tumor burden was measured twice weekly using imaging analysis. Mice were injected intraperitoneally with 15 mg/mL of D-luciferin and anesthetized with 1-2% isoflurane inhalation. 10 minutes post luciferin injection, mice were imaged using IVIS Lumina II (Perkin Elmer) and total bioluminescence signal (BLI, photons/s) was measured in a region of interest (ROI). BLI from ROI were quantified and used as an indicator of tumor burden. 29 days post tumor cell inoculation mice were randomized into two groups, with 3 mice per group and an average BLI of 17×10^6 photons. FIG. 6 are images of the mice administered Compound 1 compared to the mice administered vehicle. Images were taken on days 4, 7, 11, 14, and 18.

SU-DHL-2 = test: Anti-proliferative activity, 96 hours; conditions: Homo sapiens, SU-DHL-2, 96 h
IKZF1 and IKZF3 = IKZF1 and IKZF3 in blood cells of a monkey by flow cytometry; format: in vivo, cynomolgus monkey; conditions: 30 μg/kg oral gavage, 4-hour and 24-hour timepoint
Method: One fasted male cynomolgus monkey was administered Compound 1 formulated in 1% carboxymethylcellulose sodium+20% PEG400 in citrate buffer at 30 μg/kg by oral gavage. At indicated timepoints, blood was collected from a peripheral vessel from a restrained, non sedated monkey. 50 uL of whole blood was added to a flow tube with 1 ml PBS, centrifuged for 5 minutes at 400×g and supernatant discarded. Blood was lysed in 1 mL of lysis buffer for 10-15 minutes at room temperature, centrifuged for 5 minutes at 400× and supernatant discarded. PBS (1 mL) was added to each tube, centrifuged for 5 minutes at 400×g and supernatant discarded. PBS (1 mL) was added together with 1 ul of Zombie NIR dye to the white blood cells and incubated for 20 minutes at room temperature. The cells were centrifuged for 5 minutes at 400×g and supernatant discarded. Fixation buffer (1 mL) was added and incubated for 20 minutes at room temperature. Cells were washed with permeabilization buffer (1 mL) and centrifuged for 5 minutes at 400×g and supernatant discarded. […] Cells were washed twice with PBS (1 mL), resuspended in PBS and analyzed analyzed on a BD LSR Fortessa Flow Cytometer. FIG. 24 is a graph of the percent mean fluorescence intensity of IKZF1 and IZKF3 at 4 h and 24 hr post dose compared to the pre-dose sample. […]

[9] = all eight multiple myeloma cell lines

cereblon-DDB1, sequence (Q96SW2 whole entry): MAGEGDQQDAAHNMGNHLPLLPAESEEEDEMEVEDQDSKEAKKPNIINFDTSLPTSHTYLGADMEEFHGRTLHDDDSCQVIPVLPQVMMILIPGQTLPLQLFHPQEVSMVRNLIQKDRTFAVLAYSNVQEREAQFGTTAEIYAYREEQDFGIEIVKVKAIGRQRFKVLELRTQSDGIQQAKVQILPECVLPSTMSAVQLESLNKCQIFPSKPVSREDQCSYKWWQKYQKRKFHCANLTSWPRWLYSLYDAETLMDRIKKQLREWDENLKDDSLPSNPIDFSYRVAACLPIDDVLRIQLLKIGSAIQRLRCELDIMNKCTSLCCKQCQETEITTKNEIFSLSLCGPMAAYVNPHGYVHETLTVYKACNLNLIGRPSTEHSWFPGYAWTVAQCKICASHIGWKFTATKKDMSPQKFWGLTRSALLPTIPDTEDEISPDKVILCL
cereblon-DDB1, sequence (Q16531 whole entry partner): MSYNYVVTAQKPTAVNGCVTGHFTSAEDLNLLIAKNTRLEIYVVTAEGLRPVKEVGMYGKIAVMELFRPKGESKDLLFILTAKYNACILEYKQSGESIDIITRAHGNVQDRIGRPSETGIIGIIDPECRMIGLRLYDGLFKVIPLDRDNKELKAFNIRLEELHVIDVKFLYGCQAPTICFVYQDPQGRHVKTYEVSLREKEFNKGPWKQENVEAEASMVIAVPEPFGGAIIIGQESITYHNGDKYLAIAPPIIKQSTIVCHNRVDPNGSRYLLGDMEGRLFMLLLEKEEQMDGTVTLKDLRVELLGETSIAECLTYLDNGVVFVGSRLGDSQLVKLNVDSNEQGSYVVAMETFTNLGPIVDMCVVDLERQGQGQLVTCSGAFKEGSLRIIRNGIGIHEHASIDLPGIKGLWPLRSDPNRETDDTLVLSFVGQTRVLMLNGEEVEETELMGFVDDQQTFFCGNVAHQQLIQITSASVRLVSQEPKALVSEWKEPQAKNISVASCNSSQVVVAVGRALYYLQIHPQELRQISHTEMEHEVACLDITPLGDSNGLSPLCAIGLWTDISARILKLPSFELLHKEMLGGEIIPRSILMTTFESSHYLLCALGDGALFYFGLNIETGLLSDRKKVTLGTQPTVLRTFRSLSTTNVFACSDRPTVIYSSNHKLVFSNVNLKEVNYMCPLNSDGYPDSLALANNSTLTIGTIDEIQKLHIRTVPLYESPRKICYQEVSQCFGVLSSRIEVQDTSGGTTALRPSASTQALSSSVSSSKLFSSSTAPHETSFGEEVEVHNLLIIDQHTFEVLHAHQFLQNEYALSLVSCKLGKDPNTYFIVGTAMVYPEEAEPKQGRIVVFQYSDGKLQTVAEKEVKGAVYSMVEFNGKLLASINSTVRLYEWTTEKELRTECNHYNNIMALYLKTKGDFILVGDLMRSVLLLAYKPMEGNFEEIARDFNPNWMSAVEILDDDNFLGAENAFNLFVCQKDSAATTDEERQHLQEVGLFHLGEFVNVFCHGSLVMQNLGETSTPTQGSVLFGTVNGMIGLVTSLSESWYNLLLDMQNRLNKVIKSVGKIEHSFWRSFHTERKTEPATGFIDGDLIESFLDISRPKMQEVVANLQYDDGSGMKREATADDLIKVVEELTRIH

SMILES: O=C1CC[C@H](N2C(=O)c3cccc4c(Cc5ccc(CN6CCOCC6)cc5)ccc2c34)C(=O)N1 (single isomer, unassigned) [Compound 1]
- IC50 [1]: 12 nM
- Kd (cereblon-DDB1): 0.9 nM
- more potent than pomalidomide ([2]; across a panel of cell lines (FIG. 32)): 2-3 magnitudes
- IC50 [2, 9]: < 1 nM
- maximal inhibition [2, 9]: greater than 50%
- more potent than pomalidomide ([2]; eight multiple myeloma cell lines): 1000 fold
- IC50 (Jeko-1): 43.2 nM
- maximal inhibition ([3]; 96 hours): 70%
- IC50 ([3]; Homo sapiens, NCI-H929, 96 h): 2.3 nM
- degradation of both IKZF1/3 (IKZF1/3 [4]): > 75%
- duration of IKZF1/3 degradation (IKZF1/3 [4]): 24 h
- effect on IKZF1/3 (IKZF1/3 [5]): no effect
- IC50 (HuT 102): 15.4 nM
- IC50 [6]: 0.3 nM
- AUC(0-inf) ([7]; dose normalized to 1 mg/kg): 0.784 µg·h/mL
- Cmax ([7]; dose normalized to 1 mg/kg): 0.11 µg/mL
- half-life ([7]; read-out: T ½ (converted)): 2.3 h
- total bioluminescence signal [8]: significantly less than the mice administered vehicle
- IC50 (SU-DHL-2): 4.55 nM
- levels of IKZF1 and IKZF3 versus pre-dose (IKZF1 and IKZF3): smaller
